Results: patent US20220211652A1, “USE OF AN RXR AGONIST IN TREATING HER2+ CANCERS” (Io Therapeutics, Inc, priority 2019, published 2022)

What was measured:
SkBr3 cells = test: Growth inhibition of SkBr3 breast cancer cells, DAPI nuclei count; assay type: cell-based; conditions: Her2+ SkBr3 cell line, FIG. 1B; IRX4204 10-1000 nM, trastuzumab 0.1-10 μg/ml
Description: (§1) MCF7 is an ER^+ PR^+ Her2^− cell line. SkBr3 is an ER^− PR^− Her2^+ cell line. […] After a further 6 days, the cells were fixed with 4% paraformaldehyde in phosphate buffered saline (PBS).
(§2) Additionally the panel of breast cancer cell lines was expanded to also include the ER^+ PR^+ Her2^+ cell line BT474 and the ER^+ PR^− Her2^+ cell line MDA-MB-361.

MCF7 cells = test: Growth inhibition of MCF7 breast cancer cells, DAPI nuclei count; assay type: cell-based; conditions: Her2− MCF7 cell line, FIG. 1A; IRX4204 10-1000 nM, trastuzumab 0.1-10 μg/ml
Description: as §1, §2

RAR/RXR = test: Activation of non-permissive heterodimer RAR/RXR; assay type: cell-based
Nurr1/RXR heterodimer = test: Activation of permissive heterodimer Nurr1/RXR; assay type: cell-based
PPAR/RXR = test: Activation of permissive heterodimer PPAR/RXR; assay type: cell-based
FXR/RXR = test: Activation of permissive heterodimer FXR/RXR; assay type: cell-based
LXR/RXR = test: Activation of permissive heterodimer LXR/RXR; assay type: cell-based
RXR homodimers = test: Activation of RXR homodimers; assay type: cell-based
RARα = RARα (Homo sapiens, UniProt P10276); conditions: α isoform
RARβ = RARβ (Homo sapiens, UniProt P10826); conditions: β isoform
RARγ = RARγ (Homo sapiens, UniProt P13631); conditions: γ isoform
[1] = test system: PPAR/RXR, FXR/RXR, or LXR/RXR; conditions: cited from earlier work

Chain of RARγ (P13631 whole entry, species assumed, canonical isoform): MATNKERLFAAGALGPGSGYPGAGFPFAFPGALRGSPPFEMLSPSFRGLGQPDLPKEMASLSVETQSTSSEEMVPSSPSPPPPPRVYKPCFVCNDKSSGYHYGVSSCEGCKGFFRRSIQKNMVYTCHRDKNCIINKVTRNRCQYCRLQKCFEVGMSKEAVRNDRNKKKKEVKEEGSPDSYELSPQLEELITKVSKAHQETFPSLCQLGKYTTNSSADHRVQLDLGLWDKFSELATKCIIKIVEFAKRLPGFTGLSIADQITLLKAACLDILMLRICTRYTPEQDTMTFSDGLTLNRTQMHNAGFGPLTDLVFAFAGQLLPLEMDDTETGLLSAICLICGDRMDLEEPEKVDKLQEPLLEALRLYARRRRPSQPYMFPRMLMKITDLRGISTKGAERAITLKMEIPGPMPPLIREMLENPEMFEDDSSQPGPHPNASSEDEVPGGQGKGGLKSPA
Chain of RARα (P10276 whole entry, species assumed, canonical isoform): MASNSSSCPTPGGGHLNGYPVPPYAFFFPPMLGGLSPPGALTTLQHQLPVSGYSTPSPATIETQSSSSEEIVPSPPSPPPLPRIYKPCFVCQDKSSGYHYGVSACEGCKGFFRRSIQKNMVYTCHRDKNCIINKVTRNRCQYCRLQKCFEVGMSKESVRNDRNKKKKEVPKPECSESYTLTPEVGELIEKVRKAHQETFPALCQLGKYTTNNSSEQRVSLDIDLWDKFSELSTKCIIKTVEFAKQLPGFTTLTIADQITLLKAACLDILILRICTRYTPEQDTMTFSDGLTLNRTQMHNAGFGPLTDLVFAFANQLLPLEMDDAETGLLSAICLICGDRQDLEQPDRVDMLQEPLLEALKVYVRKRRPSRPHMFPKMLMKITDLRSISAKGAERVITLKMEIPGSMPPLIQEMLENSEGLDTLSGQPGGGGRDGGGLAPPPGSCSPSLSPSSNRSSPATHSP
Chain of RARβ (P10826 whole entry, species assumed, canonical isoform): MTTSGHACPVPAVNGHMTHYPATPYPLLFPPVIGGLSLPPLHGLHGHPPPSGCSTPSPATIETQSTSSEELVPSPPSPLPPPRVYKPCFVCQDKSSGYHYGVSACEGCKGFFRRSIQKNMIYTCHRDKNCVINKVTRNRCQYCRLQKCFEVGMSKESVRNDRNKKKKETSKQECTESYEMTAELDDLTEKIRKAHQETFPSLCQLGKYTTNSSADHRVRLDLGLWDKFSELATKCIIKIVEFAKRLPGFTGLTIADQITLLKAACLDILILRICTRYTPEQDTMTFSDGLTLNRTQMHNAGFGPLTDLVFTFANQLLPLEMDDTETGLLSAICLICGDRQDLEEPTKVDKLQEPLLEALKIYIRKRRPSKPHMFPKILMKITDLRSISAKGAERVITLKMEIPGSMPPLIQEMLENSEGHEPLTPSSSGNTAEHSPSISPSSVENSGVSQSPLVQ

| Compound | growth inhibitory effect (in words) (SkBr3 cells) | growth inhibitory effect (in words) (MCF7 cells) | activation of non-permissive heterodimers such as RAR/RXR (in words) (RAR/RXR) | activation of the Nurr1/RXR heterodimer (in words) (Nurr1/RXR heterodimer) | activation of PPAR/RXR (in words) (PPAR/RXR) | activation of FXR/RXR (in words) (FXR/RXR) | activation of LXR/RXR (in words) (LXR/RXR) | activation of RXR homodimers (in words) (RXR homodimers) | RAR EC10 (concentration effective to cause a 10% of maximal activation of the RAR) (RARα) [µM] | RAR EC10 (concentration effective to cause a 10% of maximal activation of the RAR) (RARβ) [µM] | RAR EC10 (concentration effective to cause a 10% of maximal activation of the RAR) (RARγ) [µM] | activation of one or more of PPAR/RXR, FXR/RXR, or LXR/RXR (in words) [1] |
| --- | --- | --- | --- | --- | --- | --- | --- | --- | --- | --- | --- | --- |
| CC(/C=C/[C@@H]1C[C@]1(C)c1ccc2c(c1)C(C)(C)CCC2(C)C)=C\C(=O)O [IRX4204, 3,7-dimethyl-6(S),7(S)-methano,7-[1,1,4,4-tetramethyl-1,2,3,4-tetrahydron-aphth-7-yl]2(E), 4(E) heptadienoic acid] | moderate growth inhibitory effect | neither agent had more than marginal effect | does not activate | specifically activates | does not activate | does not activate | does not activate | specifically activate | 0.3 | 0.2 | 0.2 | – |
| Cc1cc2c(cc1C1(c3ccc(C(=O)O)cn3)CC1)C(C)(C)CCC2(C)C [LGD268] | – | – | – | – | – | – | – | – | – | – | – | activates one or more |
